For assay [1], the target named is hGYS2 enzyme (recombinant hGYS2/GN1 protein) (Homo sapiens (Human), UniProt P54840). Put plainly: GYS2 coupled enzyme assay (PK/LDH). In kind it is biochemical. The following applies: geometric mean of at least 2 assay runs on separate days, read-out: Avg_IC50. A digest of the protocol: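 IC50 came from Hill fits of duplicate percent inhibition, based on control-normalized slopes of 340 nm NADH decline read each minute for 10 min. The reaction held recombinant hGYS2/GN1 (200 nM) with glycogen, UDP-glucose, G6P and PEP, plus PK/LDH coupling at pH 7.5 and 2.5% DMSO.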

Assay [2] has as its target hGYS1 enzyme (recombinant hGYS1/GN1 protein) (Homo sapiens (Human), UniProt P13807). Put plainly: GYS1 coupled enzyme assay (PK/LDH). The assay is classed as biochemical. The following applies: hGYS1/GN1 50 nM, UDP-Glucose 0.8 mM, G6P 1 mM; geometric mean of at least 2 runs.
Assay [3] relates to hGYS1 enzyme / glycogen synthesis in HeLa cells. Description: GYS1 cell based assay (glycogen synthesis, Glucose-glo). Further details: species or system human. The following applies: Homo sapiens, HeLa, 24 h, 24 h incubation, 20 mM glucose, geometric mean of at least 2 runs. In a few lines:
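HeLa cells starved 24 h in medium containing only 1× Glutamax were plated onto compound in medium with 20 mM glucose (1% DMSO final) for 24 h, 37 °C, 5% CO2. Acid lysates were Tris-quenched, glucoamylase-digested (pH 5.3, 1 h, 37 °C) and read by Glucose-glo luminescence. IC50 came from Hill fits, as geometric mean of ≥2 runs.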

Sequence of hGYS2 enzyme (recombinant hGYS2/GN1 protein) (P54840 whole entry): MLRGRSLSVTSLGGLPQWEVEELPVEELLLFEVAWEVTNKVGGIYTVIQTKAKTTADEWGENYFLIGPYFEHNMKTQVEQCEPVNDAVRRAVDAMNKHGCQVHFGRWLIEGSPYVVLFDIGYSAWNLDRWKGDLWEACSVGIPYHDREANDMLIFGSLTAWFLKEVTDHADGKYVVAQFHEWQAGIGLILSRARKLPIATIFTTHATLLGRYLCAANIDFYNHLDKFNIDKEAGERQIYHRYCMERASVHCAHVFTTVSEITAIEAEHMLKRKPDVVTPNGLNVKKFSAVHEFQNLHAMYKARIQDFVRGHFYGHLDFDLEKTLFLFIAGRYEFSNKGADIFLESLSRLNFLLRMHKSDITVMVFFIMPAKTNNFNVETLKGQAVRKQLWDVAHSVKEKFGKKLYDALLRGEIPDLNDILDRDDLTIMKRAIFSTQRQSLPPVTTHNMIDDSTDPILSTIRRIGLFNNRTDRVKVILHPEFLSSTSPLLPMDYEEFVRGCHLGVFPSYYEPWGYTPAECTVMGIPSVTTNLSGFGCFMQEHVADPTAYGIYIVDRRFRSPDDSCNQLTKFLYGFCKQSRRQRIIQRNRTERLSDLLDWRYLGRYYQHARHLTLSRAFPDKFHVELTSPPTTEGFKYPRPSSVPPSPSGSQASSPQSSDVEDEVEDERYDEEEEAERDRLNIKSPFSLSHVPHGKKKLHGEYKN
Sequence of hGYS2 enzyme (recombinant hGYS2/GN1 protein) (P46976 whole entry partner): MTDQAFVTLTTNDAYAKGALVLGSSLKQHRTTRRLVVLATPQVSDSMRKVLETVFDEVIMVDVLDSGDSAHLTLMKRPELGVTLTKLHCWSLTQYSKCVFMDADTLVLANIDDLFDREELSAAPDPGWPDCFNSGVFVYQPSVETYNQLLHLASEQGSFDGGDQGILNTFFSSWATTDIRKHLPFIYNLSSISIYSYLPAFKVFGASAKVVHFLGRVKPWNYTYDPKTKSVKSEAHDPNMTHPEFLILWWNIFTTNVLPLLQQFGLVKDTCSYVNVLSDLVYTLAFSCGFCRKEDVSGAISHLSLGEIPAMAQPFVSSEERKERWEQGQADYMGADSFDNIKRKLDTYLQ
Sequence of hGYS1 enzyme (recombinant hGYS1/GN1 protein) (P13807 whole entry): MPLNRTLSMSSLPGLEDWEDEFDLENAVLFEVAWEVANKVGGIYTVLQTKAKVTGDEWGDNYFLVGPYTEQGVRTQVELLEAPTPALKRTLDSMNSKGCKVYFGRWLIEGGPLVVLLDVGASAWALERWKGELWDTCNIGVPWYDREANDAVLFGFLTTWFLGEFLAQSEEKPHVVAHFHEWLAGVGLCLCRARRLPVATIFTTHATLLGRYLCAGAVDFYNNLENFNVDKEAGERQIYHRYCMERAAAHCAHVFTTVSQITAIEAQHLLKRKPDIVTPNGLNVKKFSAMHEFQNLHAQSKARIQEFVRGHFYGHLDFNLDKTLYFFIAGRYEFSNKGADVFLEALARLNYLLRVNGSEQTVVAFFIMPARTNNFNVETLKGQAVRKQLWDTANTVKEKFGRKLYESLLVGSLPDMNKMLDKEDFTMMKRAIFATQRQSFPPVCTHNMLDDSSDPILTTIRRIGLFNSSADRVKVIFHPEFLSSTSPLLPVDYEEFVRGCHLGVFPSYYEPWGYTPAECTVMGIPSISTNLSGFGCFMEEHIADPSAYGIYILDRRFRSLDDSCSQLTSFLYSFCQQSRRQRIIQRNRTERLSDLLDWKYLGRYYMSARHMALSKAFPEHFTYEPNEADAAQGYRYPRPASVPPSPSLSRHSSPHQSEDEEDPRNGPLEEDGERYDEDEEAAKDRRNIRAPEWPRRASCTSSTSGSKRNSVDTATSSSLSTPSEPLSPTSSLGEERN
Sequence of hGYS1 enzyme (recombinant hGYS1/GN1 protein) (P46976 whole entry partner): as the sequence (P46976 whole entry partner) above

Take `CN(C)c1cn(CC(=O)N2C[C@H](F)C[C@H]2C(=O)N[C@@H](c2ccccc2)c2ccc(C3CC3)c(F)n2)nn1` [Compound 299, (2S,4R)-N-[(S)-(5-cyclopropyl-6-fluoropyridin-2-yl)(phenyl)methyl]-1-{2-[4-(dimethylamino)-1H-1,2,3-triazol-1-yl]acetyl}-4-fluoropyrrolidine-2-carboxamide]: the values for the IC50 in assay [1], in assay [2] and in assay [3] were over 100 µM, 22 nM and 420 nM, respectively.

As to `CN(C)C(=O)NCC(=O)N1C[C@H](F)C[C@H]1C(=O)N[C@@H](c1ccccc1)c1ccc(C2CC2)c(F)n1` [Compound 300, (2S,4R)-N-[(S)-(5-cyclopropyl-6-fluoropyridin-2-yl)(phenyl)methyl]-1-{2-[(dimethylcarbamoyl)amino]acetyl}-4-fluoropyrrolidine-2-carboxamide], the results for the IC50 in assay [1], in assay [2] and in assay [3] were over 100 µM, 28 nM and 570 nM, respectively.

Take `CNC(=O)NCC(=O)N1C[C@H](F)C[C@H]1C(=O)N[C@@H](c1ccccc1)c1ccc(C2CC2)c(F)n1` [Compound 301, (2S,4R)-N-[(S)-(5-cyclopropyl-6-fluoropyridin-2-yl)(phenyl)methyl]-4-fluoro-1-{2-[(methylcarbamoyl)amino]acetyl}pyrrolidine-2-carboxamide]: the IC50 in assay [1] is over 100 µM; in assay [2], 46 nM; in assay [3], 900 nM.

For the compound `Cn1nc(CC(=O)N2C[C@H](F)C[C@H]2C(=O)N[C@@H](c2ccccc2)c2ccc(C3CC3)c(F)n2)[nH]c1=O` [Compound 303, (2S,4R)-N-[(S)-(5-cyclopropyl-6-fluoropyridin-2-yl)(phenyl)methyl]-4-fluoro-1-[2-(1-methyl-5-oxo-4,5-dihydro-1H-1,2,4-triazol-3-yl)acetyl]pyrrolidine-2-carboxamide], the IC50 in assay [1] was over 100 µM; in assay [2], 36 nM; in assay [3] it was 1520 nM.

Consider `Cn1c(CC(=O)N2C[C@H](F)C[C@H]2C(=O)N[C@@H](c2ccccc2)c2ccc(C3CC3)c(F)n2)n[nH]c1=O` [Compound 304, (2S,4R)-N-[(S)-(5-cyclopropyl-6-fluoropyridin-2-yl)(phenyl)methyl]-4-fluoro-1-[2-(4-methyl-5-oxo-4,5-dihydro-1H-1,2,4-triazol-3-yl)acetyl]pyrrolidine-2-carboxamide], for which the results for the IC50 in assay [1], in assay [2] and in assay [3] were over 100 µM, 73 nM and 2330 nM, respectively.

As to `Cn1nc(CC(=O)N2C[C@H](F)C[C@H]2C(=O)N[C@@H](c2ccccc2)c2ccc(C3CC3)c(F)n2)oc1=O` [Compound 306, (2S,4R)-N-[(S)-(5-cyclopropyl-6-fluoropyridin-2-yl)(phenyl)methyl]-4-fluoro-1-[2-(4-methyl-5-oxo-4,5-dihydro-1,3,4-oxadiazol-2-yl)acetyl]pyrrolidine-2-carboxamide], the figures for the IC50 in assay [1], in assay [2] and in assay [3] were over 100 µM, 78 nM and 810 nM, respectively.

On to `O=C(N[C@@H](c1ccccc1)c1ccc(C2CC2)c(F)n1)[C@@H]1C[C@@H](F)CN1C(=O)Cc1[nH]nnc1C(F)(F)F` [Compound 307, (2S,4R)-N-[(S)-(5-cyclopropyl-6-fluoropyridin-2-yl)(phenyl)methyl]-4-fluoro-1-{2-[4-(trifluoromethyl)-1H-1,2,3-triazol-5-yl]acetyl}pyrrolidine-2-carboxamide], for which the IC50 is over 100 µM in assay [1], 10 nM in assay [2] and 500 nM in assay [3].

Regarding `Cc1nccc(NCC(=O)N2C[C@H](F)C[C@H]2C(=O)N[C@@H](c2ccccc2)c2ccc(C3CC3)c(F)n2)n1` [Compound 308, (2S,4R)-N-[(S)-(5-cyclopropyl-6-fluoropyridin-2-yl)(phenyl)methyl]-4-fluoro-1-{2-[(2-methylpyrimidin-4-yl)amino]acetyl}pyrrolidine-2-carboxamide], the IC50 was over 100 µM in assay [1], 11 nM in assay [2] and 330 nM in assay [3].

In the case of `O=C(N[C@@H](c1ccccc1)c1ccc(C2CC2)c(F)n1)[C@@H]1C[C@@H](F)CN1C(=O)CNc1ncco1` [Compound 309, (2S,4R)-N-[(S)-(5-cyclopropyl-6-fluoropyridin-2-yl)(phenyl)methyl]-4-fluoro-1-{2-[(1,3-oxazol-2-yl)amino]acetyl}pyrrolidine-2-carboxamide], the IC50 is over 100 µM in assay [1], 55 nM in assay [2] and 970 nM in assay [3].

As for `C[C@H](NC(=O)N(C)C)C(=O)N1C[C@H](F)C[C@H]1C(=O)N[C@@H](c1ccccc1)c1ccc(C2CC2)c(F)n1` [Compound 310, (2S,4R)-N-[(S)-(5-cyclopropyl-6-fluoropyridin-2-yl)(phenyl)methyl]-1-[(2S)-2-[(dimethylcarbamoyl)amino]propanoyl]-4-fluoropyrrolidine-2-carboxamide], the IC50 in assay [1] was over 100 µM; in assay [2], 75 nM; in assay [3] it was 1290 nM.

On to `C[C@@H](NC(=O)N(C)C)C(=O)N1C[C@H](F)C[C@H]1C(=O)N[C@@H](c1ccccc1)c1ccc(C2CC2)c(F)n1` [Compound 311, (2S,4R)-N-[(S)-(5-cyclopropyl-6-fluoropyridin-2-yl)(phenyl)methyl]-1-[(2R)-2-[(dimethylcarbamoyl)amino]propanoyl]-4-fluoropyrrolidine-2-carboxamide], for which the values for the IC50 in assay [1], in assay [2] and in assay [3] were over 100 µM, 127 nM and 2100 nM, respectively.

As for `O=C(N[C@@H](c1ccccc1)c1ccc(C2CC2)c(F)n1)[C@@H]1C[C@@H](F)CN1C(=O)Cc1ncco1` [Compound 312, (2S,4R)-N-[(S)-(5-cyclopropyl-6-fluoropyridin-2-yl)(phenyl)methyl]-4-fluoro-1-[2-(1,3-oxazol-2-yl)acetyl]pyrrolidine-2-carboxamide], the IC50 in assay [1] is over 100 µM; in assay [2] it was 97 nM; in assay [3] it was 830 nM.

Regarding `Cc1cnc(CC(=O)N2C[C@H](F)C[C@H]2C(=O)N[C@@H](c2ccccc2)c2ccc(C3CC3)c(F)n2)o1` [Compound 313, (2S,4R)-N-[(S)-(5-cyclopropyl-6-fluoropyridin-2-yl)(phenyl)methyl]-4-fluoro-1-[2-(5-methyl-1,3-oxazol-2-yl)acetyl]pyrrolidine-2-carboxamide], the IC50 was over 100 µM in assay [1], 39 nM in assay [2] and 860 nM in assay [3].

`Cc1coc(CC(=O)N2C[C@H](F)C[C@H]2C(=O)N[C@@H](c2ccccc2)c2ccc(C3CC3)c(F)n2)n1` [Compound 314, (2S,4R)-N-[(S)-(5-cyclopropyl-6-fluoropyridin-2-yl)(phenyl)methyl]-4-fluoro-1-[2-(4-methyl-1,3-oxazol-2-yl)acetyl]pyrrolidine-2-carboxamide]: the IC50 was over 100 µM in assay [1], 63 nM in assay [2] and 1010 nM in assay [3].

For `O=C(N[C@@H](c1ccccc1)c1ccc(C2CC2)c(F)n1)[C@@H]1C[C@@H](F)CN1C(=O)CNC(=O)N1CC(F)(F)C1` [Compound 315, (2S,4R)-N-[(S)-(5-cyclopropyl-6-fluoropyridin-2-yl)(phenyl)methyl]-1-{2-[(3,3-difluoroazetidine-1-carbonyl)amino]acetyl}-4-fluoropyrrolidine-2-carboxamide], the IC50 in assay [1] was over 100 µM; in assay [2] it was 23 nM; in assay [3], 730 nM.

`Cc1nn(CC(=O)N2C[C@H](F)C[C@H]2C(=O)N[C@@H](c2ccccc2)c2ccc(C3CC3)c(F)n2)c(=O)o1` [Compound 316, (2S,4R)-N-[(S)-(5-cyclopropyl-6-fluoropyridin-2-yl)(phenyl)methyl]-4-fluoro-1-[2-(5-methyl-2-oxo-2,3-dihydro-1,3,4-oxadiazol-3-yl)acetyl]pyrrolidine-2-carboxamide]: the IC50 in assay [1] was over 100 µM; in assay [2], 37 nM; in assay [3] it was 930 nM.

Consider `O=C(N[C@@H](c1ccccc1)c1ccc(C2CC2)c(F)n1)[C@@H]1C[C@@H](F)CN1C(=O)Cn1ncc(N2CCC2)n1` [Compound 317, (2S,4R)-1-{2-[4-(azetidin-1-yl)-2H-1,2,3-triazol-2-yl]acetyl}-N-[(S)-(5-cyclopropyl-6-fluoropyridin-2-yl)(phenyl)methyl]-4-fluoropyrrolidine-2-carboxamide], for which the figures for the IC50 in assay [1], in assay [2] and in assay [3] were over 100 µM, 17 nM and 390 nM, respectively.

With `O=C(N[C@@H](c1ccccc1)c1ccc(C2CC2)c(F)n1)[C@@H]1C[C@@H](F)CN1C(=O)Cn1ncc(N2CC(F)(F)C2)n1` [Compound 318, (2S,4R)-N-[(S)-(5-cyclopropyl-6-fluoropyridin-2-yl)(phenyl)methyl]-1-{2-[4-(3,3-difluoroazetidin-1-yl)-2H-1,2,3-triazol-2-yl]acetyl}-4-fluoropyrrolidine-2-carboxamide], the IC50 in assay [1] is over 100 µM; in assay [2], 20 nM; in assay [3], 580 nM.

As for `CCN(CC)c1cnn(CC(=O)N2C[C@H](F)C[C@H]2C(=O)N[C@@H](c2ccccc2)c2ccc(C3CC3)c(F)n2)n1` [Compound 319, (2S,4R)-N-[(S)-(5-cyclopropyl-6-fluoropyridin-2-yl)(phenyl)methyl]-1-{2-[4-(diethylamino)-2H-1,2,3-triazol-2-yl]acetyl}-4-fluoropyrrolidine-2-carboxamide], the IC50 in assay [1] is over 100 µM; in assay [2] it was 7 nM; in assay [3] it was 240 nM.

(Values after US11814367B2, “Inhibitors of glycogen synthase 1 (GYS1) and methods of use thereof” (Maze Therapeutics, Inc., priority 2021, dated 2023).)
